The source made the active and inactive calls.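 How the source made its calls: active means IC50 at or below 20 µM (some results past the limit were not filed as active); inactive means the rest.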
Biological target: Fatty acid synthase (Homo sapiens) (UniProt P49327)
Assay: potency against FAS-TE enzyme – biochemical, fluorescence intensity, OMFH substrate, dose response (AID 1347040)
Conditions: recombinant FAS-TE, OMFH fluorogenic substrate

Fatty acid synthase (Homo sapiens), sequence (P49327 whole entry, looked up): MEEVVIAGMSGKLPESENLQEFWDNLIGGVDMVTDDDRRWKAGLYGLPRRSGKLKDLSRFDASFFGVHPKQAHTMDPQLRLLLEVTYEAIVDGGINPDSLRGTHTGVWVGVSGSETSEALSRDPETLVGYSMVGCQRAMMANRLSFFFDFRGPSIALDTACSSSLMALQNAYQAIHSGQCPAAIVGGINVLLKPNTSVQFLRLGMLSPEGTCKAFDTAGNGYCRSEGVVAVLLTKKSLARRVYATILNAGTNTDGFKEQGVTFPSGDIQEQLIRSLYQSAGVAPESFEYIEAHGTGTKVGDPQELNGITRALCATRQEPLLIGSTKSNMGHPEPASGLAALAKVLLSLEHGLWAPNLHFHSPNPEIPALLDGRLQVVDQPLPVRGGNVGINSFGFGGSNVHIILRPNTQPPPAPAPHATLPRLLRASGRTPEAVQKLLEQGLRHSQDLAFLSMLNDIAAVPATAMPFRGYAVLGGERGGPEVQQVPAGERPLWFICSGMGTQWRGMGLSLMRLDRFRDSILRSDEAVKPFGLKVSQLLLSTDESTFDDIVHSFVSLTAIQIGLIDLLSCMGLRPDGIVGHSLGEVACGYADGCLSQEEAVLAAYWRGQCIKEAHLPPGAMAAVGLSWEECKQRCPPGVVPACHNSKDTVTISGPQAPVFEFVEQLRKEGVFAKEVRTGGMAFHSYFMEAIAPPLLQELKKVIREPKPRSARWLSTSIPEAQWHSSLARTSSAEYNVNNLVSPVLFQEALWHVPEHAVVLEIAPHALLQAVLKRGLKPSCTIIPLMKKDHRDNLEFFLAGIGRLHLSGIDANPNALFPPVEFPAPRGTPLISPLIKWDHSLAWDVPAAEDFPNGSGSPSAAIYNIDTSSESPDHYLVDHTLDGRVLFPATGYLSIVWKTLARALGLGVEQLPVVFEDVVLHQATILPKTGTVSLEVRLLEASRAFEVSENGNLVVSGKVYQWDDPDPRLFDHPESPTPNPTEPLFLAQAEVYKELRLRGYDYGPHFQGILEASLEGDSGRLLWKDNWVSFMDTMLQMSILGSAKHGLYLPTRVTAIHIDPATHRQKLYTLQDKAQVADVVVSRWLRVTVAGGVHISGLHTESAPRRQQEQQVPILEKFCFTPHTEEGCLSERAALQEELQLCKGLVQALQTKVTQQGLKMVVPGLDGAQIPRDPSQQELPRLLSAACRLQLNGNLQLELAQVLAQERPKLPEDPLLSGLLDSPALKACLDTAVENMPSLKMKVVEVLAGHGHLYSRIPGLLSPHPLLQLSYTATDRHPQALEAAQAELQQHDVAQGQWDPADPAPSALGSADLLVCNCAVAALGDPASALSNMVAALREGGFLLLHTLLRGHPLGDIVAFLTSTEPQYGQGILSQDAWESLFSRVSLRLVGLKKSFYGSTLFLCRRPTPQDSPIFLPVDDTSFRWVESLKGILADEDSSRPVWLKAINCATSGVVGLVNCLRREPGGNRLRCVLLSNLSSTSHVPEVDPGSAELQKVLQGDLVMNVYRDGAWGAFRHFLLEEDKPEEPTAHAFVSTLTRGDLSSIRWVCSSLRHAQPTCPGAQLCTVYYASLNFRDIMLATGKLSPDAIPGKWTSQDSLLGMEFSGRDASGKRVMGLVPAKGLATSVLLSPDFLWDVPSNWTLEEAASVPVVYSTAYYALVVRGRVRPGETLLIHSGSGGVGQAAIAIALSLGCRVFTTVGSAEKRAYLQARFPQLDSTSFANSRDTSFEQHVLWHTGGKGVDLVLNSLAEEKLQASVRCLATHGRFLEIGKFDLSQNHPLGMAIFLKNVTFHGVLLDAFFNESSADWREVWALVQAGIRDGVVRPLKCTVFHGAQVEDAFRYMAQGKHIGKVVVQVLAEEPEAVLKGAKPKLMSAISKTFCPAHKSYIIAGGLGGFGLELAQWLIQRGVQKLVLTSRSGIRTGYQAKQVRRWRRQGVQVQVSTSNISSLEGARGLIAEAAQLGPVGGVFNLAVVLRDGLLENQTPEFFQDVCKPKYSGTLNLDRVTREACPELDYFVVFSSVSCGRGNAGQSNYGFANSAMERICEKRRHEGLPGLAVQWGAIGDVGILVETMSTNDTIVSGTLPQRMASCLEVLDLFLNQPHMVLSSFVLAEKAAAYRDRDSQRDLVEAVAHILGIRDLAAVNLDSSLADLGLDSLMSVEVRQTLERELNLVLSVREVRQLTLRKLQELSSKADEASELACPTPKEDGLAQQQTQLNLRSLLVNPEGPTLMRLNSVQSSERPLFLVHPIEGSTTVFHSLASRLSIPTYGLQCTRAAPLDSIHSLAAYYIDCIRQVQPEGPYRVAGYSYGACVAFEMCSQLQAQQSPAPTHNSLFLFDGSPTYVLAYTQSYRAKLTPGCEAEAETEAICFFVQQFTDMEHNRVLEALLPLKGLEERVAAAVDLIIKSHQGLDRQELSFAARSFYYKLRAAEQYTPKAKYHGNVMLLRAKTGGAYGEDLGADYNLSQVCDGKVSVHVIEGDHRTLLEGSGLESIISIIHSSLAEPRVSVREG

Compound	IC50
CCN(CC)S(=O)(=O)c1ccc(-c2csc(Cc3ccccc3F)n2)cc1	0.631 µM
CCN(CC)S(=O)(=O)c1ccc(-c2csc(-c3ccc(F)cc3)n2)cc1	0.5 µM
CCN(CC)S(=O)(=O)c1ccc(-c2csc(Cc3cccc(C(F)(F)F)c3)n2)cc1	3.26 µM
CCN(CC)S(=O)(=O)c1ccc(-c2csc(-c3ccc(Br)cc3)n2)cc1	10 µM
CCN(CC)S(=O)(=O)c1ccc(-c2csc(C(C)(C)C)n2)cc1	2.6 µM
CC(C)c1nc(-c2ccc(S(=O)(=O)N3CCOCC3)cc2)cs1	5.8 µM
CCN(CC)S(=O)(=O)c1ccc(-c2csc(-c3ccc(Br)cc3C)n2)cc1	17.2 µM
CCc1nc(-c2ccc(S(=O)(=O)N(CC)CC)cc2)cs1	51.7 µM
O=C(Cc1ccc(S(=O)(=O)N2CCOCC2)s1)N1CCN(S(=O)(=O)c2ccccc2)CC1	44.6 µM
CCN(CC)S(=O)(=O)c1ccc(-c2csc(-c3cccc(Br)c3)n2)cc1	5.04 µM
CCN(CC)S(=O)(=O)c1ccc(-c2csc(C(C)C)n2)cc1	4.2 µM
O=C(Cc1ccc(S(=O)(=O)N2CCOCC2)s1)N1CCN(S(=O)(=O)c2ccc(F)cc2)CC1	inactive
CCN(CC)S(=O)(=O)c1ccc(-c2csc(-c3ccc(Cl)cc3)n2)cc1	10 µM
CCN(CC)S(=O)(=O)c1ccc(-c2csc(Cc3cccc(I)c3)n2)cc1	8.69 µM
CS(=O)(=O)N1CCN(C(=O)Cc2ccc(S(=O)(=O)N3CCOCC3)s2)CC1	> 30 µM (inactive)
CC(C)(C)c1ccc(CNC(=O)Cc2ccc(S(=O)(=O)N3CCOCC3)s2)cc1	14.3 µM
O=C(Cc1ccc(S(=O)(=O)N2CCOCC2)s1)NCc1ccccc1	> 30 µM (inactive)
O=S(=O)(c1ccc(-c2csc(-c3ccc(F)cc3)n2)cc1)N1CCOCC1	0.291 µM
CCN(CC)S(=O)(=O)c1ccc(-c2csc(C(c3ccccc3)c3ccccc3)n2)cc1	5.28 µM
CCN(CC)S(=O)(=O)c1ccc(-c2csc(Cc3cccc(F)c3)n2)cc1	1.17 µM
CC(C)S(=O)(=O)N1CCN(C(=O)Cc2ccc(S(=O)(=O)N3CCOCC3)s2)CC1	> 30 µM (inactive)
O=C(Cc1ccc(S(=O)(=O)N2CCOCC2)s1)N1CCN(S(=O)(=O)Cc2ccccc2)CC1	> 30 µM (inactive)
CCN(CC)S(=O)(=O)c1ccc(-c2csc(Cc3ccc(F)cc3)n2)cc1	0.918 µM
CCN(CC)S(=O)(=O)c1ccc(-c2csc(Cc3ccccc3OC)n2)cc1	5.38 µM
Cc1cc(C)c(S(=O)(=O)N2CCN(C(=O)Cc3ccc(S(=O)(=O)N4CCOCC4)s3)CC2)c(C)c1	33.2 µM

Reference: PubChem BioAssay AID1347040 (Sanford-Burnham Center for Chemical Genomics, 2019)
